Experiment [1] addresses B-cell receptor CD22 (Homo sapiens) (UniProt P20273). Briefly: Inhibition of to hFc tagged CD22 (unknown origin) assessed as relative inhibitory potency incubated for 4 hrs by ELISA relative to 1,4-bis-(2-Aza-1-oxo-8-(sodium(5-acetamido-3,5,9-trideoxy-9-(4-phenylbenzamido)-D-glycero-alpha-D-galacto-non-2-ulopyranosyloxyonate))-5-thia-octyl)benzene. In general terms: An ELISA detects its analyte on a solid surface through an enzyme-linked reagent.

Experiment [2] deals with T1, B-cell receptor CD22 (Homo sapiens, UniProt P20273).
T1 sequence (P20273 whole entry): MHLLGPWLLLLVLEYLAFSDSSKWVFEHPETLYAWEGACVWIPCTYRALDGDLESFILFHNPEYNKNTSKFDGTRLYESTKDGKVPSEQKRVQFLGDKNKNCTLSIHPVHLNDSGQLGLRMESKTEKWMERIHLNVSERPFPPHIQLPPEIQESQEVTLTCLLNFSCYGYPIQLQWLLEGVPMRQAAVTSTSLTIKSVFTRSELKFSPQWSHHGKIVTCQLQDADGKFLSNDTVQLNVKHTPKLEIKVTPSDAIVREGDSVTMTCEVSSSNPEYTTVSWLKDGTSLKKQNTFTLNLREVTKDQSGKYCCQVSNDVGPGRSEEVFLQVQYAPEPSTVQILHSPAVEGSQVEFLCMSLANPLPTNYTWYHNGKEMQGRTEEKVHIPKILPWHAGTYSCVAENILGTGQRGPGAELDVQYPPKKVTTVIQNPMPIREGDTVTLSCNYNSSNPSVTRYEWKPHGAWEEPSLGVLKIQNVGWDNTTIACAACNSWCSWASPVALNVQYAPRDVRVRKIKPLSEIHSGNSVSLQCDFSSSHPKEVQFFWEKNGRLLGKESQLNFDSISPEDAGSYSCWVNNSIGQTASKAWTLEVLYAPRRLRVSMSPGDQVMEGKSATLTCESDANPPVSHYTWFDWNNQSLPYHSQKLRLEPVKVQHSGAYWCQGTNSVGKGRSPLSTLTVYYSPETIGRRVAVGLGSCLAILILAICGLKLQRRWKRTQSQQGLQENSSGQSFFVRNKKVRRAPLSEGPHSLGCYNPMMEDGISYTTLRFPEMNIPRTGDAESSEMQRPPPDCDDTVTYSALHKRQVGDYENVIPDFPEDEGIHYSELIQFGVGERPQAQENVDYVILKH
Briefly: Inhibition of CD22 in human Daudi cells preincubated for 15 mins followed by biotinylated dimeric 2-(78-biotinoylamino-1,4,7,10,13,16-hexaoxa-octadecyl)-1,4-bis(2-aza-l-oxo-8-(sodium(5-acetamido-3,5,9-trideoxy-9-(4-phenylbenzamido)-D-glycero-a-D-galacto-non-2-ulopyranosyloxyonate))-5-thia-octyl) benzene probe addition incubated for 20 mins by flow cytometric analysis. Format: cell-based.

The target of experiment [3] is B-cell receptor CD22 (Homo sapiens) (UniProt P20273). The experiment in a line: Inhibition of CD22 in human Daudi cells assessed as relative inhibitory potency in presence of biotinylated dimeric 2-(78-biotinoylamino-1,4,7,10,13,16-hexaoxa-octadecyl)-1,4-bis(2-aza-l-oxo-8-(sodium(5-acetamido-3,5,9-trideoxy-9-(4-phenylbenzamido)-D-glycero-a-D-galacto-non-2-ulopyranosyloxyonate))-5-thia-octyl) benzene preincubated for 15 mins followed by probe addition incubated for 20 mins by flow cytometric analysis relative to 1,4-bis-(2-Aza-1-oxo-8-(sodium(5-acetamido-3,5,9-trideoxy-9-(4-phenylbenzamido)-D-glycero-alpha-D-galacto-non-2-ulopyranosyloxyonate))-5-thia-octyl)benzene. The format is cell-based. The note with it: time 35.0 min. A general note: In flow cytometry, cells or beads pass a laser one at a time.

The target is the same in experiment [4]. Briefly: Antagonist activity at CD22 in IgM stimulated human Daudi cells assessed as increase in calcium flux incubated for 10 mins by flow cytometric analysis. Format: cell-based. The settings on record: dose 2-200 µM, DDE = dose-dependent effect.
Experiment [5] shares this target. The experiment in a line: Inhibition of hFc tagged CD22 (unknown origin) assessed as relative inhibitory potency incubated for 4 hrs by ELISA relative to 1,4-Bis-(2-aza-1-oxo-8-(sodium-(5-acetamido-3,5-dideoxy-D-glycero-alpha-D-galacto-non-2-ulopyranosyloxyonate))-5-thia-octyl)benzene.
Experiment [6] shares this target. The experiment in a line: Inhibition of CD22 (unknown origin) in human Daudi cells assessed as relative inhibitory potency in presence of biotinylated dimeric 2-(78-biotinoylamino-1,4,7,10,13,16-hexaoxa-octadecyl)-1,4-bis(2-aza-l-oxo-8-(sodium(5-acetamido-3,5,9-trideoxy-9-(4-phenylbenzamido)-D-glycero-a-D-galacto-non-2-ulopyranosyloxyonate))-5-thia-octyl) benzene preincubated for 15 mins followed by probe addition incubated for 20 mins by flow cytometric analysis relative to 1,4-Bis-(2-aza-1-oxo-8-(sodium-(5-acetamido-3,5-dideoxy-D-glycero-alpha-D-galacto-non-2-ulopyranosyloxyonate))-5-thia-octyl)benzene. The format is cell-based. The note with it: time 35.0 min.

In experiment [7] the target is T1, B-cell receptor CD22. The experiment in a line: Inhibition hFc tagged CD22 incubated for 4 hrs by ELISA.

SMILES strings stand for the structures.

From ChEMBL document CHEMBL5113508, “Targeting Human CD22/Siglec-2 with Dimeric Sialosides as Novel Oligosaccharide Mimetics” (J Med Chem, 2022) come the findings set out here.

One may read the IC50 as the point on the concentration scale where inhibition reaches its midpoint. High values mean lower potency, low ones higher potency. As to `CC(=O)N[C@H]1[C@H]([C@H](O)[C@H](O)CNC(=O)c2ccc(-c3ccccc3)cc2)O[C@@](OCCCSCCNC(=O)CCCCC(=O)NCCSCCCO[C@]2(C(=O)O)C[C@H](O)[C@@H](NC(C)=O)[C@H]([C@H](O)[C@H](O)CNC(=O)c3ccc(-c4ccccc4)cc3)O2)(C(=O)O)C[C@@H]1O`, the values for the fold change (FC) in experiment [1] and in experiment [3] were 0.77 and 0.073, respectively. For the same compound, half-maximal inhibition against B-cell receptor CD22 [2] (IC50) was put at 24000 nM.
With `CC(=O)N[C@H]1[C@H]([C@H](O)[C@H](O)CO)O[C@@](OCCCSCCNC(=O)c2ccc(C(=O)NCCSCCCO[C@]3(C(=O)O)C[C@H](O)[C@@H](NC(C)=O)[C@H]([C@H](O)[C@H](O)CNC(=O)c4ccc(-c5ccccc5)cc4)O3)cc2)(C(=O)O)C[C@@H]1O`, in experiment [4], the Activity entry is “Dde”. The fold change (FC) was 105 in experiment [5] and 135 in experiment [6]. The compound further gave a 50% inhibitory concentration (IC50) on B-cell receptor CD22 [7] of 0.39 nM.
Take `CC(=O)N[C@H]1[C@H]([C@H](O)[C@H](O)CNC(=O)c2ccc(-c3ccccc3)cc2)O[C@@](OCCCSCCNC(=O)c2ccc(C(=O)NCCSCCCO[C@]3(C(=O)O)C[C@H](O)[C@@H](NC(C)=O)[C@H]([C@H](O)[C@H](O)CNC(=O)c4ccc(-c5ccccc5)cc4)O3)cc2)(C(=O)O)C[C@@H]1O`: in experiment [4], the Activity result is “Dde”. In addition, the values for the fold change (FC) in experiment [5] and in experiment [6] were 100 and 2940, respectively. In addition, the half-maximal inhibitory concentration (IC50) at B-cell receptor CD22 [2] came out at 2200 nM; against B-cell receptor CD22 [7] it was 0.41 nM.
